Measured values taken from patent US20220249462A1, “COMPOSITIONS AND METHODS USING TRIGONELLINE TO PRODUCE INTRACELLULAR NAD+” (SOCIETE DES PRODUITS NESTLE S.A., priority 2019, published 2022).

Legend:
[1] = system: Human Skeletal Muscle Myotubes (HSMM); details: 6 h
Description: Human primary myoblasts from two different donors were seeded in 6 well plates at a density of 200′000 cells per well in skeletal muscle growth medium (SKM-M, AMSbio). After one day, the differentiation was induced by a medium change for 4 days using differentiation culture medium (Gibco No. 31330-028). Cells were treated with isotopically labelled trigonelline (13C carbonyl; 32H on methyl) for 6 h.
Cell extracts were separated on a Vanquish UHPLC+focused LC system (Thermo Scientific) with a hydrophilic liquid chromatography (HILIC) iHILIC-Fusion(P) column (Hilicon) carrying the dimensions 150×2.1 mm, 5 μm and a guard column (iHILIC-fusion(P), Hilicon) in front. The separation of metabolites was achieved by applying a linear solvent gradient in normal phase at 0.25 mL/min flow rate and 35° C. of temperature. As mobile phase, solvent A was water with 10 mM ammonium acetate and 0.04% (v/v) ammonium hydroxide, pH ˜9.3, and solvent B was acetonitrile.
The eluting metabolites were analyzed with an Orbitrap Fusion Lumos mass spectrometer (Thermo Scientific) with a heated electrospray ionization (H-ESI) source in positive and negative mode at a resolution of 60,000 at m/z of 200. Instrument control and data analysis were conducted using Xcalibur (Thermo Scientific).

[2] = system: RW1596 (myo-3p::GFP) worms; details: 1 mM trigonelline chloride, 11 day old worms
Description: RW1596 (myo-3p::GFP) worms were collected at Day 1 (young adults) and at Day 11 (aged animals) for muscle integrity assessment. Worms were immobilized with tetramisole and analyzed by confocal microscopy, to assess the muscle fibers morphology shown by GFP fluorescence imaging. Trigonelline treatment with 1 mM trigonelline chloride and experimental measurements were started at Day 1 of wild type N2 worm adulthood, in a regimen of chronic exposure till experiments termination.

C. elegans [3] = details: 1 mM trigonelline chloride, day 8 old worms
Description: Absolute quantification of the mtDNA copy number in wild type N2 worms was performed by real-time PCR. Relative values for nduo-1, and act-1 were compared within each sample to generate a ratio representing the relative level of mitochondrial DNA per nuclear genome. The average of at least two technical repeats was used for each biological data point. Each experiment was performed on at least ten independent biological samples (individual worms). Trigonelline treatment with 1 mM trigonelline chloride and experimental measurements were started at Day 1 of wild type N2 worm adulthood, in a regimen of chronic exposure till experiments termination.

[4] = system: Human Skeletal Muscle Myotubes (HSMM); test: Colorimetric NAD+ quantification in human primary myoblasts differentiated to myotubes, 16 h treatment; type: cell-based; details: different doses
Description: After one day, the differentiation is induced by a medium change for 4 days. Cells were treated with synthetic trigonelline monohydrate (FIG. 4A) or with Fenugreek seed extract enriched in trigonelline containing 40.45% trigonelline (FIG. 4B) for 16 h at difference doses. NAD+ was measured using colorimetric NAD+ quantification assay (Biovision NAD+/NADH Quantitation Colorimetric Kit #k337-100).

C57BL/6JRj male mice = test: Liver NAD+ in mice after oral gavage; type: in vivo; details: equimolar of 300 mg/kg trigonelline, 120 minutes
Description: 10 weeks C57BL/6JRj male mice received trigonelline (sigma #T5509) or fenugreek seed extract enriched in trigonelline (40.45% trigonelline) by oral gavage (equimolar of 300 mg/kg trigonelline, n=8/group). After 120 minutes treatment, the liver was harvested and flash frozen in liquid nitrogen. NAD+ was measured in liver using an enzymatic method adapted from Dall, M., et al., Mol Cell Endocrinol, 2018. 473:p. 245-256.

C. elegans [5] = details: 1 mM, chronic exposure from Day 1 of adulthood, wild type N2
Description: Worm lifespan tests were performed using about 100 animals per condition and scored manually every other day. Trigonelline treatment and experimental measurements were started at Day 1 of wild type N2 worm adulthood, in a regimen of chronic exposure till experiments termination.

C. elegans [6] = details: 1 mM
Description: C. elegans mobility test was performed using the Movement Tracker software (Mouchiroud, L. et al. Curr Protoc Neurosci 77, 8.37.1-8.37.21 (2016)). The experiments were repeated at least twice. Trigonelline treatment and experimental measurements were started at Day 1 of wild type N2 worm adulthood, in a regimen of chronic exposure till experiments termination.

C. elegans [7] = details: 1 mM, day 8 and day 11 old worms
Text: 45 to 60 worms per condition were manually scored for mobility after poking. Worms that were unable to respond to any repeated stimulation were scored as dead. […] Trigonelline treatment and experimental measurements were started at Day 1 of wild type N2 worm adulthood, in a regimen of chronic exposure til experiments termination.

## C[n+]1cccc(C(=O)[O-])c1 [trigonelline, 1-methylpyridin-1-ium-3-carboxylate]
[1]; 500 μM, human myotubes from 2 donors, LC-MS
  NAD+ levels relative to control: enhancement of NAD+ levels
[2]
  Myofibrillar structure (GFP-tagged myosin morphology) compared to age matched control: improved more organized myofibrillar structure
C. elegans [3]
  Mitochondrial (nduo-1) relative to nuclear (act-1) DNA ratio compared to control: higher than in the control group

## C[n+]1cccc(C(=O)[O-])c1 [chemically synthesized trigonelline, trigonelline monohydrate]
[4]
  NAD+ content compared to the control: significant increase in NAD+ content
C57BL/6JRj male mice
  NAD+ content in the liver compared to the control: significant increase in NAD+ content in the liver

## C[n+]1cccc(C(=O)O)c1 [trigonelline chloride]
C. elegans [5]
  Increase of lifespan (survival curve): 21%
C. elegans [6]; advanced aging phase
  Distance travelled during spontaneous mobility assay compared to control: significantly increased
C. elegans [6]; from day 1 adulthood
  Mean speed during spontaneous mobility assay compared to the control: increased the mean speed
C. elegans [7]
  Stimulated mobility score (percentage of worms responsive to a physical stimulus): more responsive to a physical stimulus

## C[n+]1cccc(C(=O)[O-])c1 [trigonelline (13C-carbonyl, C2H3), reference compound]
[1]; 500 μM labelled trigonelline, compared to NAD+ in baseline conditions, corrected for natural abundance
  [13C]-isotopic enrichment of NAD+ (% of 13C-enrichment): 45%
